Laboratory results taken from a melting point compilation (Tetko et al.; mined from patent text by program, amines drawn as free bases though some values may be those of a salt).

Structure (SMILES)	melting point [°C]
COC(=O)c1c(CNC(=O)c2ccc(C(=O)O)cc2)ccc2c1C(C)(C)CCC2(C)C	95 to 100
O=c1oc2ccccc2c(O)c1C1CC(c2ccc(OCc3ccc(-c4ccc(-c5ccccc5)cc4)cc3)cc2)Cc2ccccc21 (configuration not stated)	245 to 248
O=C1Nc2cccnc2N(C(=O)NCCN2CCC(CNCC3CCCCC3)C2)c2ccccc21 (configuration not stated)	166 to 167
COCCN(c1cccc2cc(C(=O)NCCSC(c3ccccc3)(c3ccccc3)c3ccccc3)[nH]c12)S(=O)(=O)c1cccs1	65 to 66
COC(=O)CCn1c(=O)n2n(c1=O)C(C(=O)OC(C)(C)C)C=CC2 (configuration not stated)	77 to 78
COC(=O)CCc1cnoc1-c1ccc(Cl)c(Cl)c1	74 to 75
CN(C)CCOc1ccc2ccc(N)nc2n1	105
CSc1nc(NCCC(C)C)c2ccnc-2[nH]1	157 to 158
CCC1(CCCCCl)C(=O)Nc2cc(F)ccc21 (configuration not stated)	95 to 97
COc1cc(/C=C/C(=O)NCCN2CCC(c3c[nH]c4ccccc34)CC2)ccc1O	115 to 135
CC(C)(C)OC(=O)N1CCC(c2ccc(COc3ccc([N+](=O)[O-])cc3)nc2)CC1	149 to 150
O=[N+]([O-])c1ccccc1Cc1ncc[nH]1	155 to 157
NC(=O)c1cnc2c(NC(=O)c3c(Cl)cccc3Cl)cccc2c1	> 250
CC(NC(=O)c1cc(Cl)cc(Br)c1NC(=O)c1cc(Br)nn1-c1ncccc1Cl)C1CC1 (configuration not stated)	244 to 247
Cc1ccc(-c2ccc([Si](C)(C)C)cc2)nc1	66.1
CC(C)(C)NC(=O)NC(C)(C)C#N	204 to 205
COC(=O)C(NS(=O)(=O)c1ccc(-c2ccc(NC(=O)c3cc4cc(OC)ccc4o3)cc2)cc1)C(C)C (configuration not stated)	234 to 235
CCCCN1C(=O)NC(Cc2ccc(C#N)cc2)C1=O (configuration not stated)	136
O=C(c1ccccc1Cl)c1cccnc1Br	76.3

Structure (SMILES)	melting point [°C]
Cc1ccc(-c2noc3c(Cl)c(OCC(=O)O)ccc23)cc1	257 to 260
CCc1nc2c(N)nc3cc(-c4ccc(F)nc4)cnc3c2n1CC(C)(C)O	250 to 251
O=C(Nc1ccc(CCCc2nnn[nH]2)cc1)C(F)(F)C(F)(F)C(F)(F)C(F)(F)C(F)(F)C(F)(F)C(F)(F)F	170 to 172
CCOc1ccc(F)cc1C1OC(=O)NC1=O (configuration not stated)	188 to 190
O=C(O)CC1(CNC(=O)OC(OC(=O)c2ccccc2)c2ccccc2)CCCCC1 (configuration not stated)	75.5 to 76
COc1cccc(Nc2nc(-c3ccccc3)c(C(=O)c3sc(Nc4cccc(OC)c4)nc3-c3ccccc3)s2)c1	> 285
CCCc1c(C(=O)C(C)C)c2ccc(C(=O)O)cc2n1Cc1ccccc1F	212 to 213
CC(C)(C)OC(=O)NCCCCNC(=O)COc1cccc(C(F)(F)F)c1	86
O=C(C=Cc1ccc(Cl)cc1)N1CCN(c2ccc(OC[C@H]3CO[C@](Cn4cncn4)(c4ccc(Cl)cc4Cl)O3)cc2)CC1 (relative stereo)	185
CCCCCCCCCCCCc1ccsc1-c1ccc2c(c1)c(=O)c1cc3c(cc12)c(=O)c1cc(-c2sccc2CCCCCCCCCCCC)ccc13	152 to 153
CCCc1sc(-c2ccccc2)nc1OC(=O)NC	55 to 58
CC(C)(C)C1(O)OC(=O)c2ccc(Cl)cc21 (configuration not stated)	160 to 161
Cc1cc2c(nc1OCCCCN1CCN(c3cccc4ccccc34)CC1)NC(=O)CC2	76 to 78
Cc1cc(CCCCCOc2c(Cl)cc(-c3nc(C)c(C)s3)cc2Cl)on1	57 to 58
CC(C)(C)OC(=O)c1ncn2c1[C@@H]1CCCN1C(=O)c1cc(Cl)ccc1-2	157 to 158
Nc1nc(NCC(O)(c2ccccc2)c2ccccc2)c2ncn(C3OC(CO)C(O)C3O)c2n1 (configuration not stated)	138 to 140
c1ccc(Cc2ccccc2C2CCN(CCCOc3ccccc3)CC2)cc1	139 to 140
CCCC1(C(=O)N(C)Cc2ccccc2)c2ccccc2-c2ccccc21	73 to 74
Cc1nccn1CCCNC(=O)c1cccc2oc(-c3ccccc3)nc12	145 to 148

Structure (SMILES)	melting point [°C]
[N-]=[N+]=Nc1ccnc2c(NC(=O)c3c(Cl)cccc3Cl)cccc12	188 to 193
Oc1cc2ccc(Cc3ccccc3)cc2cc1O	177 to 187
O=C(CBr)CCc1ccccc1	39 to 40
Cc1cccc(OC2=NS(=O)(=O)N=C(N)N2C(C)C)c1	56 to 58
CN(C)C(=O)c1nc2n(n1)-c1ccccc1N(c1ccccc1)C2	150 to 165
CN(C)CCOc1cc2c(Nc3ccc(Cl)cc3F)c(C#N)cnc2cn1	150 to 152
O=S(=O)(Nc1cnc(-n2cnnn2)nc1NCc1ccccc1)c1ccc(Br)cc1	184
Cc1ccc(C(=O)NC(NC(=S)Nc2cccc(F)c2F)C(F)(F)F)cc1 (configuration not stated)	210 to 211
CCNC1=CC(=O)c2c(OC)ccc(OC)c2C1=O	172 to 173
CC(C)CCn1cn[nH]c1=O	78 to 79
COc1ccc(N2CCN(CCc3ccc4[nH]c(=O)oc4c3)CC2)c2ccccc12	200
COc1ccc(Sc2ccc3c(c2)CC[C@H]2NC(=O)CC[C@]32C)cc1	194 to 196
O=C(O)CCN1CCN(C2=Nc3ccccc3Cc3ccccc32)CC1	140 to 141
O=C(CNc1ccc(F)cc1)N1CCN2C(=O)OC(c3ccccc3)(c3ccccc3)C2C1 (configuration not stated)	203 to 204
C=CCOc1ccccc1S(=O)(=O)NC(=O)n1nc(SCCF)n(C2CC2)c1=O	15
COC(=O)c1ccc(C=CC=O)cc1	99 to 101
CCOCc1nc2c(N)nc(C)cc2n1CCCCN	108 to 111
CCC(=O)NCCC1CCc2cc(Br)c3c(c21)C=CCO3 (configuration not stated)	110 to 111
Cn1ccc(NC(=O)c2cc(C#N)cc(C(F)(F)F)n2)n1	190

Results, then the molecule that gave them:

melting point [°C]	Structure (SMILES)
209 to 212	Fc1cc(OC2CCOCC2)c2c(Nc3c(Cl)ccc4c3OCO4)ncnc2c1
106 to 108	O=Cc1cc(S(=O)(=O)n2ccc3ccccc32)ccc1Br
116	CCSc1c(C(F)(F)F)nn(-c2c(Cl)cc(C(F)(F)F)cc2Cl)c1N
255 to 257	CC1=C(c2ccccc2)n2nc(C)c3c(=O)[nH]c(=S)n(c32)C1
195 to 197	CN1CCN(c2cccc(-c3cnn4c(N)c(-c5cccc(Br)c5)cnc34)c2)CC1
154 to 156	S=C(CCC(c1ccccc1)(c1ccccc1)c1ccccc1)Oc1c(Cl)c(Cl)c(Cl)c(Cl)c1Cl
205 to 206	C[Si](C)(C)C#Cc1cccc2c1C1(c3ccccc3-c3ccccc31)c1ccccc1-2
174	CN(C)CCSc1ccc2ccc(N)nc2n1
274 to 275	Cc1nc2sccn2c1C1=NNC(=O)CO1
47 to 49	CC(=O)C=Cc1cccc(N(C)C)c1
128 to 131	CC(C)c1nc2cc(COc3ccc(CC4SC(=O)NC4=O)cc3)ccc2o1 (configuration not stated)
112 to 113	COc1ccc(C2=NN(C(=O)c3cccnc3)CC2)c(OC)c1
132 to 133	C[C@]1(CN2CCN(C(=O)OCC=Cc3ccc(C(F)(F)F)cc3)CC2)Cn2cc([N+](=O)[O-])nc2O1
141	COc1ccc(CN(C(=O)C2CCOc3c(O)cccc32)c2ccc(C(C)C)cc2)cn1 (configuration not stated)
184 to 185	CC(C)(C)c1cc(Cc2nc(S)n[nH]2)cc(C(C)(C)C)c1O
233 to 234	CNC(=O)Nc1nccc(Oc2ccc3c(C(=O)Nc4ccc(F)c(C(F)(F)F)c4)cccc3c2)n1
117 to 122	O=C(O)CCC(CNCC(CO)(NC(=O)OC1C2CC3CC(C2)CC1C3)C(=O)c1c[nH]c2ccccc12)c1ccccc1 (configuration not stated)
75 to 78	CN(C(=O)c1ccccn1)c1cccc(F)c1
108 to 110	CC1(C(=O)Nc2ccc(-n3nc(C(F)(F)F)cc3C(F)(F)F)cc2)C=CCCC1 (configuration not stated)
90 to 92	COC(=O)C1=C(C)NC(C)=C(C(=O)c2ccco2)C1c1ccccc1[N+](=O)[O-] (configuration not stated)

melting point [°C]	Structure (SMILES)
122 to 125	CCc1ccc2oc(C(=O)Nc3ccc(-c4ccc(S(=O)(=O)NC(C(=O)O)C(C)C)cc4)cc3)c(C)c2c1O (configuration not stated)
182 to 184	COc1ccc2[nH]c(C)c(-c3nc(OC)cc(OC)n3)c2c1
145 to 150	COc1cc(C)ccc1S(=O)(=O)NC(=O)C(c1ccc2c(c1)OCO2)c1cn(C)c2ccc(Br)cc12 (configuration not stated)
145 to 146	O=C(O)C1=Cc2cc(F)c(N3CCC4(C3)OCCCO4)nc2N(c2ccc(F)cc2F)C1
284 to 285	Cc1c(C(=O)O)ncc2[nH]c3ccc(C4CC=CCC4)cc3c12 (configuration not stated)
67 to 69	CCc1noc(-c2cn(-c3cc(OC)ccc3Cl)cn2)n1
199 to 200	CCN1c2ncc(COc3ccc(O)cc3)cc2C(=O)N(C)c2ccc(Cl)nc21
191 to 193	OCC1Cc2c([nH]c3ccccc23)CN1 (configuration not stated)
195 to 196	N#Cc1ccc(-c2nc(C(F)(F)F)c(C(=O)O)s2)cc1
158 to 160	CCOC(=O)Cc1c(C)nc(SCc2ccc(OC)cc2)n1C
> 300	COc1cc2cc3c(Nc4ccc(Sc5nccn5C)c(Cl)c4)c(C#N)cnc3cc2cc1OCCN1CCOCC1
234 to 236	CN1C(=O)C(C(=O)Nc2ccc(F)cc2)S(=O)(=O)c2ccc(Cl)cc21 (configuration not stated)
85 to 90	Cc1sc(CO)c(C)c1Br
87.5 to 89	CC(C)(C)c1cc(SCCc2nnco2)cc(C(C)(C)C)c1O
129 to 132	CCC(=O)Nc1cscn1
135 to 136	CC(C)c1nn(-c2ccc(Cl)cn2)cc1CO
92.5 to 96.5	CCCCCCCC[C@H](C)C(=O)Oc1ccc(C(=O)O)cc1
212 to 215	NNC(=O)NCCS(=O)(=O)O
183	COc1ccc(Nc2nc(Nc3ccc(OC)c(Cl)c3)nc(NC3CCCCCC3)n2)cc1Cl
227 to 230	O=C(Nc1ccc(C(=O)N2CCO[C@H]3CCCC[C@@H]32)cc1)c1ccc(Cl)cc1Cl (relative stereo)
